How the values were obtained:
NMDA receptors = experiment: (3H)CPP binding displacement in rat brain homogenate; settings: for IC50: (3H)CPP 8 nM, rat brain homogenate, 23° C.
Protocol: It was determined that the compounds of this invention are competitive NMDA antagonists by determining their ability to inhibit binding of 3-(2-carboxypiperazinyl-4-yl)propyl-1-phosphonic acid (CPP), a known competitive NMDA antagonist, at NMDA receptors in rat brain homogenate. In a manner similar to the procedure of Murphy et al., J. Pharmacol. Exp. Therap. 240 (3) 778 (1987), rat brain homogenates from which endogenous glutamate had been removed were incubated with (3H)CPP (8 nM), the compound being tested and then buffer each for 15 minutes at 23° C. to obtain a final volume of 2 milliliters. The amount of radio ligand displaced by the test compound is expressed as a percentile of the radio ligand displaced by NMDA. The inhibitory concentration of test compound that will displace 50% of the labeled CPP is determined from dose-responseevaluations.
(§1) Where the displacement of CPP binding is expressed as a percentage, it is at the μM concentration given at the concentration in the parenthesis. Similarly, where percent inhibition of lethality at dose in parenthesis.

[1] = system: male Swiss-albino mice (CD-1 strain), NMDA-induced lethality; experiment: NMDA induced lethality in mice (survival); type: in vivo, mouse; settings: for ED50: Mus musculus, 0.5 h, mice pretreated 30 min before NMDA 195 mg/kg i.p., observed 30 min; for percent inhibition of lethality: NMDA 195 mg/kg i.p.
Protocol: (§2) The mice were then observed for 30 minutes, noting the latency of onset of generalized myoclonus (uncontrollable hind leg scratching of limbs and/or torso muscle jerking with loss of righting reflex) and death. From the latter, the ED50 for survival is determined. In this standard experimental test procedure, the specific compounds tested and their activity, which representatively establish the activity for all the compounds herein, is presented in the following Table.
as §1

[2] = system: ischemic brain damage in gerbils; settings: Boast et al., Brain Research 1988; cited from earlier work
[3] = system: NMDA-induced convulsions in mice; settings: Lehmann et al. 1987; cited from earlier work
[4] = system: Parkinsonian-like symptoms induced by MPTP in rats; settings: Turski et al., Nature 1991; cited from earlier work
[5] = system: male Swiss-albino mice (CD-1 strain), generalized myoclonus; experiment: NMDA-induced generalized myoclonus in mice; type: in vivo; settings: Mus musculus, ip, read-out: ED90 dose for generalized myoclonus
Protocol: as §2

[6] = at dose in parenthesis 5 (in mg/kg)

Structure (SMILES)	IC50 (NMDA receptors) [nM]	ED50 [1] [mg/kg]	also measured
CCOC(=O)CNc1c(N)c(=O)c1=O [1(a), N-(2-amino-3,4-dioxo-1-cyclobutenyl)glycine ethyl ester]	190000	> 100	–
Nc1c(NCC(=O)O)c(=O)c1=O [1(b), N-(2-amino-3,4-dioxo-1-cyclobutenyl)glycine]	–	> 100	–
Nc1c(NCCCC(=O)O)c(=O)c1=O [1(c), 4-[(2-amino-3,4-dioxo-1-cyclobutenyl)amino]butanoic acid]	10200	> 100	–
CNc1c(NCCC(=O)O)c(=O)c1=O [2(a), N-[2-(methylamino)-3,4-dioxo-1-cyclobutenyl]beta-alanine]	19600	> 100	–
O=C(O)CCNc1c(NCc2ccccc2)c(=O)c1=O [2(b), 3-[[3,4-dioxo-2[(phenylmethyl)amino]-1-cyclobutenyl]amino]propanoic acid]	> 100000	> 100	–
C=C(C)CN(CC(=O)O)c1c(N)c(=O)c1=O [3(a), N-(2-amino-3,4-dioxo-1-cyclobutenyl)-N-(2-methyl-2-propenyl)glycine]	30000	> 100	–
Nc1c(N(CC(=O)O)Cc2ccccc2)c(=O)c1=O [3(b), N-(2-amino-3,4-dioxo-1-cyclobutenyl)-N-(phenylmethyl)glycine]	–	> 100	displacement of CPP binding (NMDA receptors; at 100 μM): 50%
Nc1c(NCP(=O)(O)O)c(=O)c1=O [4(a), [[(2-amino-3,4-dioxo-1-cyclobutenyl)amino]methyl]phosphonic acid]	> 10000	–	–
Nc1c(NCCCP(=O)(O)O)c(=O)c1=O [4(b), [3-[(2-amino-3,4-dioxo-1-cyclobuten-1-yl)amino]propyl]phosphonic acid]	2590	> 100	–
Nc1c(NCCCCP(=O)(O)O)c(=O)c1=O [4(c), [4-[(2-amino-3,4-dioxo-1-cyclobuten-1-yl)amino]butyl]phosphonic acid]	–	> 30	displacement of CPP binding (NMDA receptors; at 10 μM): 68%
CN(CP(=O)(O)O)c1c(N)c(=O)c1=O [6(a), [[(2-amino-3,4-dioxo-1-cyclobuten-1-yl)methylamino]methyl]phosphonic acid]	> 10000	–	–
CC1(C)CNc2c(c(=O)c2=O)N(CCP(=O)(O)O)C1 [9(a), [2-(4,4-dimethyl-8,9-dioxo-2,6-diazabicyclo[5.2.0]non-1(7)-en-2-yl)ethyl]phosphonic acid]	280	–	percent inhibition of lethality [1, 6]: 50%
O=c1c2c(c1=O)N(CCCP(=O)(O)O)CCCN2 [9(b), [3-(8,9-dioxo-2,6-diazabicyclo[5.2.0]non-1(7)-en-2-yl)propyl]phosphonic acid]	> 1000	> 10	–
O=c1c2c(c1=O)N(C/C=C/P(=O)(O)O)CCCN2 [9(c), [(E)-3-(8,9-dioxo-2,6-diazabicyclo[5.2.0]non-1(7)-en-2-yl)-1-propenyl]phosphonic acid]	> 10000	> 5	–
O=C(O)CCN1CCCNc2c1c(=O)c2=O [10(a), 3-(8,9-dioxo-2,6-diazabicyclo[5.2.0]non-1(7)-en-2-yl)propanoic acid]	340	> 20	–
O=c1c2c(c1=O)N(CCc1nnn[nH]1)CCCN2 [11(a), 2-[2-(1H-tetrazol-5-yl)ethyl]-2,6-diazabicyclo[5.2.0]non-1(7)-ene-8,9-dione]	–	> 5	displacement of CPP binding (NMDA receptors; at 10 μM): 40%
O=C(O)C1CN(CCCP(=O)(O)O)CCN1 (stereo not shown) [CPP, 4-(3-phosphonopropyl)-2-piperazinecarboxylic acid]	–	–	prevention of ischemic brain damage [2]: shown to prevent ischemic brain damage in gerbils; prevention of NMDA-induced convulsions [3]: NMDA-induced convulsions have been prevented by CPP in mice; prevention of Parkinsonian-like symptoms induced by MPTP [4]: shown to prevent the Parkinsonian-like symptoms induced by MPTP
Nc1c(NCCC(=O)O)c(=O)c1=O [Example 1, N-(2-Amino-3,4-dioxo-1-cyclobuten-1-yl)beta-alanine]	–	> 100	–
Nc1c(NCCn2oc(=O)[nH]c2=O)c(=O)c1=O [Example 2, 2-[2-[(2-Amino-3,4-dioxo-1-cyclobuten-1-yl)amino]ethyl]-1,2,4-oxadiazolidine-3,5-dione]	5200	> 100	–
C=CCN(CC(=O)O)c1c(N)c(=O)c1=O [Example 3, N-(2-Amino-3,4-dioxo-1-cyclobuten-1-yl)-N-(2-propenyl)glycine]	10500	> 100	–
Nc1c(NCCP(=O)(O)O)c(=O)c1=O [Example 4, [2-[(2-Amino-3,4-dioxo-1-cyclobuten-1-yl)amino]ethyl]phosphonic acid]	471	–	–
Nc1c(NC/C=C/CP(=O)(O)O)c(=O)c1=O [Example 5, [(E)-4-[(2-Amino-3,4-dioxo-1-cyclobuten-1-yl)amino]-2-butenyl]phosphonic acid]	–	> 30	displacement of CPP binding (NMDA receptors; at 10 μM): 52%
CN(CCP(=O)(O)O)c1c(N)c(=O)c1=O [Example 6, [2-[(2-Amino-3,4-dioxo-1-cyclobuten-1-yl)methylamino]ethyl]phosphonic acid]	1000	–	percent inhibition of lethality ([1]; at dose in parenthesis 50 (in mg/kg)): 50%
O=c1c2c(c1=O)N(CCP(=O)(O)O)CCN2 [Example 7, [2-(7,8-Dioxo-2,5-diazabicyclo[4.2.0]oct-1(6)-en-2-yl)ethyl]phosphonic acid]	92	6.2	–
O=c1c2c(c1=O)N(CCP(=O)(O)O)CCCN2 [Example 8, [2-(8,9-Dioxo-2,6-diazabicyclo[5.2.0]non-1(7)-en-2-yl)ethyl]phosphonic acid]	30	2.1	–
O=c1c2c(c1=O)N(CCP(=O)(O)O)CC(O)CN2 (stereo not shown) [Example 9, [2-(4-hydroxy-8,9-dioxo-2,6-diazabicyclo[5.2.0]non-1(7)-en-2-yl)ethyl]phosphonic acid]	19	1.8	–
O=C(O)CN1CCCNc2c1c(=O)c2=O [Example 10, 8,9-Dioxo-2,6-diazabicyclo[5.2.0]non-1(7)-ene-2-acetic acid]	550	> 20	–
O=c1c2c(c1=O)N(Cc1nnn[nH]1)CCCN2 [Example 11, 2-[(1H-Tetrazol-5-yl)methyl]-2,6-diazabicyclo[5.2.0]non-1(7)-ene-8,9-dione]	38	> 10	–
O=c1c2c(c1=O)N(CCP(=O)(O)O)CCCCN2 [Example 12, [2-(9,10-Dioxo-2,7-diazabicyclo[6.2.0]dec-1(8)-en-2-yl)ethyl]phosphonic acid]	41	–	percent inhibition of lethality [1, 6]: 80%
CN[C@H](CC(=O)O)C(=O)O [NMDA, N-methyl-D-aspartic acid]	–	–	ED90 [5]: 195 mg/kg

— patent US5240946A, “((2-(amino-3,4-dioxo-1-cyclobuten-1-yl)amino)alkyl)-acid derivatives” (American Home Products Corporation, priority 1992, dated 1993)
